In US8952024B2, “Herbicidal pyrimidone derivatives” (E I du Pont de Nemours and Company, priority 2009, dated 2015):

Experiments:
Assay in all cases: Test B pre-/postemergence plant response
Type in all cases: in vivo
[1] = test system: woolly cupgrass (Eriochloa villosa); details: for Cupgrass, Woolly plant response rating (0 to 100 scale): 62 g ai/ha, 0 is no effect, 13 to 15 days
How it was run: (§1)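 Each species received compound formulated in non-phytotoxic solvent with surfactant, either at planting into a loam and sand blend or as a foliar spray once plants reached 2 to 18 cm in peat-based medium. Plants stayed in the greenhouse 13 to 15 days before visual evaluation against controls, scored 0 (no effect) to 100 (complete control).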

[2] = test system: Surinam grass (Brachiaria decumbens); details: for Surinam Grass plant response rating (0 to 100 scale): 62 g ai/ha, 0 is no effect, 13 to 15 days
How it was run: as §1

[3] = test system: cocklebur (Xanthium strumarium); details: for Cocklebur plant response rating (0 to 100 scale): 62 g ai/ha, 0 is no effect, 13 to 15 days
How it was run: as §1

[4] = test system: wild oat (Avena fatua); details: for Oat, Wild plant response rating (0 to 100 scale): 62 g ai/ha, 0 is no effect, 13 to 15 days
How it was run: as §1

[5] = test system: yellow nutsedge (Cyperus esculentus); details: for Nutsedge, Yellow plant response rating (0 to 100 scale): 62 g ai/ha, 0 is no effect, 13 to 15 days
How it was run: as §1

[6] = test system: lambsquarters (Chenopodium album); details: for Lambsquarters plant response rating (0 to 100 scale): 62 g ai/ha, 0 is no effect, 13 to 15 days
How it was run: as §1

[7] = test system: kochia (Kochia scoparia); details: for Kochia plant response rating (0 to 100 scale): 62 g ai/ha, 0 is no effect, 13 to 15 days
How it was run: as §1

[8] = test system: large crabgrass (Digitaria sanguinalis); details: for Crabgrass, Large plant response rating (0 to 100 scale): 62 g ai/ha, 0 is no effect, 13 to 15 days
How it was run: as §1

[9] = 31 g ai/ha, postemergence, scale 0 to 100, 0 is no effect, 100 is complete control
[10] = postemergence, 100 is complete control
[11] = Postemergence, 125 g ai/ha, visual rating after 13 to 15 days, scale 0 (no effect) to 100 (complete control)
[12] = Postemergence, 250 g ai/ha, scale 0 to 100 (0 no effect, 100 complete control)

SMILES	Plant response rating, Cupgrass, Woolly [1, 9]	Cupgrass, Woolly plant response rating (0 to 100 scale) [1, 10]	Plant response rating, Cupgrass, Woolly [1, 11]	Plant response rating, Cupgrass, Woolly [1, 12]	Plant response rating, Surinam Grass [2, 9]	Surinam Grass plant response rating (0 to 100 scale) [2, 10]	Plant response rating, Surinam Grass [2, 12]	Plant response rating, Cocklebur [3, 9]	Cocklebur plant response rating (0 to 100 scale) [3, 10]	Plant response rating, Cocklebur [3, 11]	Plant response rating, Cocklebur [3, 12]	Plant response rating, Oat, Wild [4, 9]	Oat, Wild plant response rating (0 to 100 scale) [4, 10]	Plant response rating, Oat, Wild [4, 12]	Plant response rating, Nutsedge, Yellow [5, 9]	Nutsedge, Yellow plant response rating (0 to 100 scale) [5, 10]	Plant response rating, Nutsedge, Yellow [5, 12]	Plant response rating, Lambsquarters [6, 9]	Lambsquarters plant response rating (0 to 100 scale) [6, 10]	Plant response rating, Lambsquarters [6, 12]	also measured
CCCc1ncc(C(=O)C2=C(O)CCCC2=O)c(=O)n1-c1cccc(C)c1 [Compound 79]	10	40	65	75	20	45	90	95	98	98	98	40	45	75	25	60	80	95	98	100	Plant response rating, Surinam Grass [2, 11]: 75; Plant response rating, Oat, Wild [4, 11]: 60; Plant response rating, Nutsedge, Yellow [5, 11]: 70; Plant response rating, Lambsquarters [6, 11]: 100; Plant response rating, Kochia [7, 9]: 75; Kochia plant response rating (0 to 100 scale) [7, 10]: 75; Plant response rating, Kochia [7, 11]: 75; Plant response rating, Kochia [7, 12]: 80; Plant response rating, Crabgrass, Large [8, 9]: 80; Crabgrass, Large plant response rating (0 to 100 scale) [8, 10]: 85; Plant response rating, Crabgrass, Large [8, 11]: 90; Plant response rating, Crabgrass, Large [8, 12]: 95
O=C1CCCC(O)=C1C(=O)c1cnc(C2CC2)n(-c2ccccc2)c1=O [Compound 87]	50	75	75	90	75	75	85	98	100	100	100	50	60	90	10	60	75	98	98	100	Plant response rating, Kochia [7, 9]: 100; Kochia plant response rating (0 to 100 scale) [7, 10]: 100; Plant response rating, Kochia [7, 12]: 100; Plant response rating, Crabgrass, Large [8, 9]: 85; Crabgrass, Large plant response rating (0 to 100 scale) [8, 10]: 85; Plant response rating, Crabgrass, Large [8, 11]: 95; Plant response rating, Crabgrass, Large [8, 12]: 98
O=C1CCCC(O)=C1C(=O)c1cnc(-c2ccccc2)n(C2CC2)c1=O [Compound 90]	45	45	50	55	65	65	75	75	90	100	100	0	5	20	60	65	75	85	95	100	Plant response rating, Kochia [7, 9]: 65; Kochia plant response rating (0 to 100 scale) [7, 10]: 85; Plant response rating, Kochia [7, 12]: 98; Plant response rating, Crabgrass, Large [8, 9]: 65; Crabgrass, Large plant response rating (0 to 100 scale) [8, 10]: 75; Plant response rating, Crabgrass, Large [8, 11]: 75; Plant response rating, Crabgrass, Large [8, 12]: 80
COCCOCCn1c(-c2ccccc2)ncc(C(=O)C2=C(O)CCCC2=O)c1=O [Compound 91]	70	85	98	98	85	98	98	20	65	95	95	30	30	50	50	65	75	85	100	100	Plant response rating, Kochia [7, 9]: 20; Kochia plant response rating (0 to 100 scale) [7, 10]: 80; Plant response rating, Kochia [7, 12]: 95; Plant response rating, Crabgrass, Large [8, 9]: 80; Crabgrass, Large plant response rating (0 to 100 scale) [8, 10]: 95; Plant response rating, Crabgrass, Large [8, 11]: 98; Plant response rating, Crabgrass, Large [8, 12]: 100
O=C1CCCC(O)=C1C(=O)c1cnc(C2CCCC2)n(-c2ccccc2)c1=O [Compound 92]	10	25	65	70	25	65	75	25	80	98	98	0	5	10	45	65	75	90	98	100	Plant response rating, Kochia [7, 9]: 75; Kochia plant response rating (0 to 100 scale) [7, 10]: 90; Plant response rating, Kochia [7, 12]: 100; Plant response rating, Crabgrass, Large [8, 9]: 80; Crabgrass, Large plant response rating (0 to 100 scale) [8, 10]: 90; Plant response rating, Crabgrass, Large [8, 11]: 98; Plant response rating, Crabgrass, Large [8, 12]: 100
